{
  "source": "paper PMC6855250",
  "about": "(Nature, 2019)",
  "target": "SidJ (Legionella pneumophila, UniProt Q5ZTK6)",
  "sequence (Q5ZTK6 whole entry, looked up)": "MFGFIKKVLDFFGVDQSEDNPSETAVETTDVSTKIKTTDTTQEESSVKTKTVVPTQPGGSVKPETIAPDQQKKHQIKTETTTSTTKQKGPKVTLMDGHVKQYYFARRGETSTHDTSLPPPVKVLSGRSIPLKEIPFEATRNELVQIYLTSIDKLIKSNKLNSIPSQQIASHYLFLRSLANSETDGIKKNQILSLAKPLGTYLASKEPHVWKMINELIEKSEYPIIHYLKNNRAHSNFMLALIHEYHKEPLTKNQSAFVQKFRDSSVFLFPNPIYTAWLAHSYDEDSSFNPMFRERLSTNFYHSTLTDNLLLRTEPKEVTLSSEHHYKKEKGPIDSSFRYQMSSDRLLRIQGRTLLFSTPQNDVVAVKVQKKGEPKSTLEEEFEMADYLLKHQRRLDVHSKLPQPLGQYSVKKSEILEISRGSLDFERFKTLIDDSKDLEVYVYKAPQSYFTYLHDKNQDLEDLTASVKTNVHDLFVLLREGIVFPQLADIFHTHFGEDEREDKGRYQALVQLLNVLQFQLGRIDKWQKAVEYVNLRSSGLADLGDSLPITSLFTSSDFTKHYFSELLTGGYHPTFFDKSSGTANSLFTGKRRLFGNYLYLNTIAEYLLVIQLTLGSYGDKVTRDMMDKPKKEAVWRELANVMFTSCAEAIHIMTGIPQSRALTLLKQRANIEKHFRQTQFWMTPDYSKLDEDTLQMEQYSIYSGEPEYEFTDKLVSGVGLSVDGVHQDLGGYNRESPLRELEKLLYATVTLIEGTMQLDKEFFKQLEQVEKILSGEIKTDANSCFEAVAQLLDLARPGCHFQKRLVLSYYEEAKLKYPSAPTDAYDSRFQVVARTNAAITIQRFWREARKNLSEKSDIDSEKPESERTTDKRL",
  "assay": "biochemical",
  "data": [
    {"compound": "Nc1ncnc2c1ncn2[C@@H]1O[C@H](COP(=O)(O)OP(=O)(O)OP(=O)(O)O)[C@@H](O)[C@H]1O", "note": "[ATP]", "values": [
      {"measurement": "Kd", "value": 1450, "unit": "nM"}
    ]}
  ]
}
